*1 amine or outer side, *2 acyl side, *3 side chain or, on linkers, in order; H or OH if unused. Where a SMILES comes first, the peptide text is derived from it. Side-chain parts run from the residue outwards. [ ]: non-standard residue; d: D form. The star is where a group is joined. C20 diacid = O=C(O)CCCCCCCCCCCCCCCCCCC(=O)*; αMePhe(2-F) = C[C@](N)(Cc1ccccc1F)C(=O)O; γGlu = O=C(O)[C@H](CCC(=O)[*:2])N[*:1]; αMeF = C[C@](N)(Cc1ccccc1)C(=O)O; 4Pal = N[C@@H](Cc1ccncc1)C(=O)O; AEEA = NCCOCCOCC(=O)O; Aib = CC(C)(N)C(=O)O
Columns and labels:
[1] = target: T1, human GIPR (Homo sapiens, UniProt P48546); experiment: [125I]-GIP binding, SPA with WGA beads, 0.1% bacitracin; settings: geometric mean, read-out: hGIPR Ki
T1 construct: expressed in transfected cells; crude membranes
T1 sequence (P48546 22-466): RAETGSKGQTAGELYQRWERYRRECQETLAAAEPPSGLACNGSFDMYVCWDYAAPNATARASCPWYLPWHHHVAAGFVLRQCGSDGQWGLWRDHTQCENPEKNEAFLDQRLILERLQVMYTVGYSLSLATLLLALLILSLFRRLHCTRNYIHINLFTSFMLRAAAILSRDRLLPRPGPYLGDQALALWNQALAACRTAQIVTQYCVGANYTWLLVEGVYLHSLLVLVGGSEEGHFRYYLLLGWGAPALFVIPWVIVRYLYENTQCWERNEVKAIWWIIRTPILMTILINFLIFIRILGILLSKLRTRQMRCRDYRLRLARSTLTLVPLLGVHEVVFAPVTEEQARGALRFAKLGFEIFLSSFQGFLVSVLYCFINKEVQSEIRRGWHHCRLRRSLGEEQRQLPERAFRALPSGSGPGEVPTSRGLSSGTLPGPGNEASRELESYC
Method in brief: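 Ki values are geometric means (SEM, n independent days), derived from four-parameter nonlinear regression of IC50. Membranes came from hGIPR-expressing CHO cells.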

[2] = target: T2, human glucose-dependent insulinotropic peptide receptor (GIPR) (Homo sapiens, UniProt P48546); experiment: cAMP functional assay (HTRF) in HEK293 cells in presence of 0.1% casein; format: cell-based; settings: HEK293 cells expressing human GIPR, geometric mean, read-out: hGIPR cAMP Rel EC50 nM (SEM, n)
T2 construct: expressed in transfected cells; host or cells: HEK293
T2 sequence (P48546 22-466): T1 sequence (P48546 22-466)

Molecule `CC[C@H](C)[C@H](NC(=O)[C@H](CO)NC(=O)[C@H](Cc1ccc(O)cc1)NC(=O)[C@H](CC(=O)O)NC(=O)[C@H](CO)NC(=O)[C@@H](NC(=O)[C@](C)(Cc1ccccc1F)NC(=O)[C@@H](NC(=O)CNC(=O)[C@H](CCC(=O)O)NC(=O)C(C)(C)NC(=O)[C@@H](N)Cc1ccc(O)cc1)[C@@H](C)O)[C@@H](C)CC)C(=O)N[C@@H](C)C(=O)N[C@@H](CC(C)C)C(=O)N[C@@H](CC(=O)O)C(=O)N[C@@H](CCCCN)C(=O)N[C@@H](CCCCNC(=O)COCCOCCNC(=O)COCCOCCNC(=O)CC[C@H](NC(=O)CCCCCCCCCCCCCCCCCCC(=O)O)C(=O)O)C(=O)N[C@@H](Cc1c[nH]cn1)C(=O)N[C@@H](CCC(N)=O)C(=O)NC(C)(C)C(=O)N[C@@H](CC(=O)O)C(=O)N[C@@H](Cc1ccccc1)C(=O)N[C@H](C(=O)N[C@@H](CCC(=O)O)C(=O)N[C@@H](Cc1ccncc1)C(=O)N[C@@H](CC(C)C)C(=O)N[C@@H](CC(C)C)C(=O)N[C@@H](CCC(=O)O)C(=O)N[C@H](C(=O)NCC(=O)N1CCC[C@H]1C(=O)N[C@@H](CO)C(=O)N[C@@H](CO)C(=O)NCC(=O)N[C@@H](C)C(=O)N1CCC[C@H]1C(=O)N1CCC[C@H]1C(=O)N1CCC[C@H]1C(=O)N[C@@H](CO)C(N)=O)[C@@H](C)O)C(C)C` [Example 38] (H-Y[Aib]EGT[αMePhe(2-F)]ISDYSIALDKK([AEEA-AEEA-γGlu-C20 diacid])HQ[Aib]DFVE[4Pal]LLETGPSSGAPPPS-NH2) has a Ki [1] of 0.0588 nM and an EC50 [2] of 0.0368 nM.

`CC[C@H](C)[C@H](NC(=O)[C@H](CO)NC(=O)[C@H](Cc1ccc(O)cc1)NC(=O)[C@H](CC(=O)O)NC(=O)[C@H](CO)NC(=O)[C@@H](NC(=O)[C@](C)(Cc1ccccc1F)NC(=O)[C@@H](NC(=O)CNC(=O)[C@H](CCC(=O)O)NC(=O)C(C)(C)NC(=O)[C@@H](N)Cc1ccc(O)cc1)[C@@H](C)O)[C@@H](C)CC)C(=O)N[C@@H](C)C(=O)N[C@@H](CC(C)C)C(=O)N[C@@H](CC(=O)O)C(=O)N[C@@H](CCCCN)C(=O)N[C@@H](CCCCNC(=O)COCCOCCNC(=O)COCCOCCNC(=O)CC[C@H](NC(=O)CCCCCCCCCCCCCCCCCCC(=O)O)C(=O)O)C(=O)N[C@@H](Cc1c[nH]cn1)C(=O)N[C@@H](CCC(N)=O)C(=O)NC(C)(C)C(=O)N[C@@H](CC(=O)O)C(=O)N[C@@H](Cc1ccccc1)C(=O)N[C@H](C(=O)N[C@@H](CCC(=O)O)C(=O)N[C@@H](Cc1ccncc1)C(=O)N[C@@H](CC(C)C)C(=O)N[C@@H](CC(C)C)C(=O)N[C@@H](CCC(=O)O)C(=O)NCC(=O)NCC(=O)N1CCC[C@H]1C(=O)N[C@@H](CO)C(=O)N[C@@H](CO)C(=O)NCC(=O)N[C@@H](C)C(=O)N1CCC[C@H]1C(=O)N1CCC[C@H]1C(=O)N1CCC[C@H]1C(=O)N[C@@H](CO)C(N)=O)C(C)C` [Example 39] (H-Y[Aib]EGT[αMePhe(2-F)]ISDYSIALDKK([AEEA-AEEA-γGlu-C20 diacid])HQ[Aib]DFVE[4Pal]LLEGGPSSGAPPPS-NH2) showed a Ki [1] of 0.0444 nM and an EC50 [2] of 0.0112 nM.

Molecule `CC[C@H](C)[C@H](NC(=O)[C@H](CO)NC(=O)[C@H](Cc1ccc(O)cc1)NC(=O)[C@H](CC(=O)O)NC(=O)[C@H](CO)NC(=O)[C@@H](NC(=O)[C@](C)(Cc1ccccc1F)NC(=O)[C@@H](NC(=O)CNC(=O)[C@H](CCC(=O)O)NC(=O)C(C)(C)NC(=O)[C@@H](N)Cc1ccc(O)cc1)[C@@H](C)O)[C@@H](C)CC)C(=O)N[C@@H](C)C(=O)N[C@@H](CC(C)C)C(=O)N[C@@H](CC(=O)O)C(=O)N[C@@H](CCCCN)C(=O)N[C@@H](CCCCNC(=O)COCCOCCNC(=O)COCCOCCNC(=O)CC[C@H](NC(=O)CCCCCCCCCCCCCCCCCCC(=O)O)C(=O)O)C(=O)N[C@@H](Cc1c[nH]cn1)C(=O)N[C@@H](CCC(N)=O)C(=O)NC(C)(C)C(=O)N[C@@H](CC(=O)O)C(=O)N[C@@H](Cc1ccccc1)C(=O)N[C@H](C(=O)N[C@@H](CCC(=O)O)C(=O)N[C@@H](Cc1c[nH]c2ccccc12)C(=O)N[C@@H](CC(C)C)C(=O)N[C@@H](CC(C)C)C(=O)N[C@@H](CCC(=O)O)C(=O)N[C@H](C(=O)NCC(=O)N1CCC[C@H]1C(=O)N[C@@H](CO)C(=O)N[C@@H](CO)C(=O)NCC(=O)N[C@@H](C)C(=O)N1CCC[C@H]1C(=O)N1CCC[C@H]1C(=O)N1CCC[C@H]1C(=O)N[C@@H](CO)C(N)=O)[C@@H](C)O)C(C)C` [Example 40] (H-Y[Aib]EGT[αMePhe(2-F)]ISDYSIALDKK([AEEA-AEEA-γGlu-C20 diacid])HQ[Aib]DFVEWLLETGPSSGAPPPS-NH2) has a Ki [1] of 0.0594 nM and an EC50 [2] of 0.033 nM.

Work on `CC[C@H](C)[C@H](NC(=O)[C@H](CO)NC(=O)[C@H](Cc1ccc(O)cc1)NC(=O)[C@H](CC(=O)O)NC(=O)[C@H](CO)NC(=O)[C@@H](NC(=O)[C@](C)(Cc1ccccc1)NC(=O)[C@@H](NC(=O)CNC(=O)[C@H](CCC(=O)O)NC(=O)C(C)(C)NC(=O)[C@@H](N)Cc1ccc(O)cc1)[C@@H](C)O)[C@@H](C)CC)C(=O)N[C@@H](C)C(=O)N[C@@H](CC(C)C)C(=O)N[C@@H](CC(=O)O)C(=O)N[C@@H](CCCCN)C(=O)N[C@@H](CCCCNC(=O)COCCOCCNC(=O)COCCOCCNC(=O)CC[C@H](NC(=O)CCCCCCCCCCCCCCCCCCC(=O)O)C(=O)O)C(=O)N[C@@H](Cc1c[nH]cn1)C(=O)N[C@@H](CCC(N)=O)C(=O)NC(C)(C)C(=O)N[C@@H](CC(=O)O)C(=O)N[C@@H](Cc1ccccc1)C(=O)N[C@H](C(=O)N[C@@H](CCC(=O)O)C(=O)N[C@@H](Cc1ccncc1)C(=O)N[C@@H](CC(C)C)C(=O)N[C@@H](CC(C)C)C(=O)N[C@@H](CCC(=O)O)C(=O)N[C@H](C(=O)NCC(=O)N1CCC[C@H]1C(=O)N[C@@H](CO)C(=O)N[C@@H](CO)C(=O)NCC(=O)N[C@@H](C)C(=O)N1CCC[C@H]1C(=O)N1CCC[C@H]1C(=O)N1CCC[C@H]1C(=O)N[C@@H](CO)C(N)=O)[C@@H](C)O)C(C)C` [Example 41] (H-Y[Aib]EGT[αMeF]ISDYSIALDKK([AEEA-AEEA-γGlu-C20 diacid])HQ[Aib]DFVE[4Pal]LLETGPSSGAPPPS-NH2) yielded a Ki [1] of 0.143 nM and an EC50 [2] of 0.0281 nM.

`CC[C@H](C)[C@H](NC(=O)[C@H](CO)NC(=O)[C@H](Cc1ccc(O)cc1)NC(=O)[C@H](CC(=O)O)NC(=O)[C@H](CO)NC(=O)[C@@H](NC(=O)[C@](C)(Cc1ccccc1)NC(=O)[C@@H](NC(=O)CNC(=O)[C@H](CCC(=O)O)NC(=O)C(C)(C)NC(=O)[C@@H](N)Cc1ccc(O)cc1)[C@@H](C)O)[C@@H](C)CC)C(=O)N[C@@H](C)C(=O)N[C@@H](CC(C)C)C(=O)N[C@@H](CC(=O)O)C(=O)N[C@@H](CCCCN)C(=O)N[C@@H](CCCCNC(=O)COCCOCCNC(=O)COCCOCCNC(=O)CC[C@H](NC(=O)CCCCCCCCCCCCCCCCCCC(=O)O)C(=O)O)C(=O)N[C@@H](Cc1c[nH]cn1)C(=O)N[C@@H](CCC(N)=O)C(=O)NC(C)(C)C(=O)N[C@@H](CC(=O)O)C(=O)N[C@@H](Cc1ccccc1)C(=O)N[C@H](C(=O)N[C@@H](CCC(=O)O)C(=O)N[C@@H](Cc1ccncc1)C(=O)N[C@@H](CC(C)C)C(=O)N[C@@H](CC(C)C)C(=O)N[C@@H](CCC(=O)O)C(=O)N[C@@H](CCC(N)=O)C(=O)NCC(=O)N1CCC[C@H]1C(=O)N[C@@H](CO)C(=O)N[C@@H](CO)C(=O)NCC(=O)N[C@@H](C)C(=O)N1CCC[C@H]1C(=O)N1CCC[C@H]1C(=O)N1CCC[C@H]1C(=O)N[C@@H](CO)C(N)=O)C(C)C` [Example 42] (H-Y[Aib]EGT[αMeF]ISDYSIALDKK([AEEA-AEEA-γGlu-C20 diacid])HQ[Aib]DFVE[4Pal]LLEQGPSSGAPPPS-NH2) was tested, and the Ki [1] was 0.0392 nM and the EC50 [2] was 0.0091 nM.

`CC[C@H](C)[C@H](NC(=O)[C@H](CO)NC(=O)[C@H](Cc1ccc(O)cc1)NC(=O)[C@H](CC(=O)O)NC(=O)[C@H](CO)NC(=O)[C@@H](NC(=O)[C@](C)(Cc1ccccc1)NC(=O)[C@@H](NC(=O)CNC(=O)[C@H](CCC(=O)O)NC(=O)C(C)(C)NC(=O)[C@@H](N)Cc1ccc(O)cc1)[C@@H](C)O)[C@@H](C)CC)C(=O)N[C@@H](C)C(=O)N[C@@H](CC(C)C)C(=O)N[C@@H](CC(=O)O)C(=O)N[C@@H](CCCCN)C(=O)N[C@@H](CCCCNC(=O)COCCOCCNC(=O)COCCOCCNC(=O)CC[C@H](NC(=O)CCCCCCCCCCCCCCCCCCC(=O)O)C(=O)O)C(=O)N[C@@H](Cc1c[nH]cn1)C(=O)N[C@@H](CCC(N)=O)C(=O)NC(C)(C)C(=O)N[C@@H](CC(=O)O)C(=O)N[C@@H](Cc1ccccc1)C(=O)N[C@H](C(=O)N[C@@H](CCC(=O)O)C(=O)N[C@@H](Cc1ccncc1)C(=O)N[C@@H](CC(C)C)C(=O)N[C@@H](CC(C)C)C(=O)N[C@@H](CCC(=O)O)C(=O)N[C@@H](C)C(=O)NCC(=O)N1CCC[C@H]1C(=O)N[C@@H](CO)C(=O)N[C@@H](CO)C(=O)NCC(=O)N[C@@H](C)C(=O)N1CCC[C@H]1C(=O)N1CCC[C@H]1C(=O)N1CCC[C@H]1C(=O)N[C@@H](CO)C(N)=O)C(C)C` [Example 43] (H-Y[Aib]EGT[αMeF]ISDYSIALDKK([AEEA-AEEA-γGlu-C20 diacid])HQ[Aib]DFVE[4Pal]LLEAGPSSGAPPPS-NH2) was tested, and the Ki [1] was 0.0366 nM and the EC50 [2] was 0.0154 nM.

— patent US12723063B2, “GIPR-agonist compounds” (Eli Lilly and Company, priority 2019, dated 2026)
